Measurements from patent US9777045B2, “Immunogenic compositions and methods” (Longhorn Vaccines and Diagnostics, LLC, priority 2007, dated 2017).
Several values for one entry are separate records, joined by “and”; a condition that tells them apart may be missing. Equal values may be shown once.

Key:
[1] = test system: live H1N1 virus; set-up: species or system cotton rats (Sigmodon hispidus); settings: rat, in vivo
[2] = test system: Influenza H3N2 (Wuhan); set-up: species or system cotton rats (Sigmodon hispidus); settings: rat, in vivo
[3] = test system: live H3N2 virus; format: in vivo, cotton rats (Sigmodon hispidus); settings: rat, in vivo
[4] = test system: IFN-γ induction in splenocytes; format: cell-based; settings: mice immunized with peptide-BSA conjugates; 72 h in vitro treatment
[5] = test system: live Wuhan (Influenza A/Wuhan/359/95, H3N2); test: ELISA for anti-Wuhan antibodies (mouse sera 1:100); format: in vivo, mice; settings: sera 1:100; for Absorbance values for individual sera tested on influenzavirus strain Wuhan, Pre: mice, pre-bleed; for Anti-Wuhan Absorbance Day 42 (group average) / Anti-Wuhan Absorbance Pre-Bleed (group average): averaged results
[6] = test system: peptide corresponding to the peptide-BSA conjugate used for injection; test: ELISA for anti-peptide antibodies (individual mouse sera 1:100); format: in vivo, mice; settings: for Average Absorbance Values of sera for tested peptides, Day 14 / Average Absorbance Values of sera for tested peptides, Day 29 / Average Absorbance Values of sera for tested peptides, Day 42 / Average Absorbance Values of sera for tested peptides, Pre: group average; for Average Absorbance Values of sera for tested peptides, Day 14 / Average Absorbance Values of sera for tested peptides, Day 29 / Average Absorbance Values of sera for tested peptides, Day 42 / Average Absorbance Values of sera for tested peptides, Pre / Individual absorbancy values of sera for tested peptides, Day 14 / Individual absorbancy values of sera for tested peptides, Day 29 / Individual absorbancy values of sera for tested peptides, Day 42: mice; for Average Absorbance Values of sera for tested peptides, Pre / Individual absorbancy values of sera for tested peptides, Pre: pre-bleed; for Individual absorbancy values of sera for tested peptides, Pre: mice injected with peptide-BSA conjugate, absorbance 450 nm; for Individual absorbancy values of sera for tested peptides, Pre / Individual absorbancy values of sera for tested peptides, Day 14 / Individual absorbancy values of sera for tested peptides, Day 29 / Individual absorbancy values of sera for tested peptides, Day 42: sera 1:100
Experimental: Individual sera were tested at a final dilution of 1:100 (in PBS-T) on Nunc Maxisorp® plates coated with the peptide corresponding to the peptide-BSA conjugate used for injection, at a concentration of 1 μg/ml in PBS (100 μl/well). One hundred microliters of diluted sera were reacted on the coated plate for 30 to 60 min at room temperature, and unbound material was removed by washing three times with PBS-T. Anti-peptide antibodies were detected with peroxidase-labeled goat anti-mouse IgG (γ-specific), diluted 1:10000 in PBS-T (100 μl/well; Jackson ImmunoResearch Laboratories, Inc., West Grove, Pa., USA). Following 30-min incubation, the wells were washed five times with PBS-T to removed unbound material and 100 μl of substrate (TMB; Kirkegaard & Perry Laboratories, Inc., Gaithersburg, Md., USA) was added to each well. The reaction was allowed to proceed for 15 min in the dark and stopped by addition of 100 μl of TMB Stop Solution per well (Kirkegaard & Perry). Absorbance was determined at 450 nm.

[7] = 5 μg per injection, listed as 1911

SLLTEVETPIRNEWGLLTEVETPIRQYIKANSKFIGITE [PF2001]
IgG antibody against live H1N1 virus (ELISA) [1]: IgG antibody rises were also induced
viral inhibitory antibody to H3N2 after peptide boost [2]: boosted viral inhibitory antibody to H3N2
IgG titers to live H3N2 virus (ELISA) [3]: superior to two injections of M2e
IgG to live H3N2 virus after peptide boost of primed animals (ELISA) [3]: equivalent titer to group 6

HYEECSCY [Peptide 5911]
IFN-γ response of spleen cell supernatants (in words) [4]: Weaker responses
Absorbance values for individual sera tested on influenzavirus strain Wuhan, Pre ([5]; 5 μg per injection): 0.060 and 0.073 and 0.063 and 0.067
Absorbance values for individual sera tested on influenzavirus strain Wuhan, Pre ([5]; 20 μg per injection): 0.065 and 0.069 and 0.084 and 0.070
Anti-Wuhan Absorbance Day 42 (individual mice) ([5]; dose per inject 5 μg): 0.154 and 0.174 and 0.136 and 0.165
Anti-Wuhan Absorbance Pre-Bleed (individual mice) ([5]; dose per inject 5 μg): 0.067 and 0.060 and 0.073 and 0.063
Anti-Wuhan Absorbance Day 42 (individual mice) ([5]; dose per inject 20 μg): 0.747 and 0.194 and 0.154 and 0.134
Anti-Wuhan Absorbance Pre-Bleed (individual mice) ([5]; dose per inject 20 μg): 0.065 and 0.069 and 0.084 and 0.070
Anti-Wuhan Absorbance Day 42 (group average) ([5]; dose per injection 5 μg): 0.157
Anti-Wuhan Absorbance Pre-Bleed (group average) ([5]; dose per injection 5 μg): 0.065
Anti-Wuhan Absorbance Day 42 (group average) ([5]; dose per injection 20 μg): 0.307
Anti-Wuhan Absorbance Pre-Bleed (group average) ([5]; dose per injection 20 μg): 0.072
Average Absorbance Values of sera for tested peptides, Day 14 ([6]; 5 μg per injection): 0.264
Average Absorbance Values of sera for tested peptides, Day 29 ([6]; 5 μg per injection): 0.213
Average Absorbance Values of sera for tested peptides, Day 42 ([6]; 5 μg per injection): 0.347
Average Absorbance Values of sera for tested peptides, Pre ([6]; 5 μg per injection): 0.156
Average Absorbance Values of sera for tested peptides, Day 14 ([6]; 20 μg per injection): 0.171
Average Absorbance Values of sera for tested peptides, Day 29 ([6]; 20 μg per injection): 0.229
Average Absorbance Values of sera for tested peptides, Day 42 ([6]; 20 μg per injection): 0.342
Average Absorbance Values of sera for tested peptides, Pre ([6]; 20 μg per injection): 0.132
Individual absorbancy values of sera for tested peptides, Pre ([6]; 5 μg per injection): 0.126 and 0.187 and 0.137
Individual absorbancy values of sera for tested peptides, Pre [6, 7]: 0.174
Individual absorbancy values of sera for tested peptides, Pre ([6]; 20 μg per injection): 0.099 and 0.109 and 0.151 and 0.121
Individual absorbancy values of sera for tested peptides, Day 14 ([6]; 5 μg per injection): 0.184 and 0.503 and 0.154
Individual absorbancy values of sera for tested peptides, Day 14 [6, 7]: 0.216
Individual absorbancy values of sera for tested peptides, Day 29 ([6]; 5 μg per injection): 0.201 and 0.303 and 0.188
Individual absorbancy values of sera for tested peptides, Day 29 [6, 7]: 0.161
Individual absorbancy values of sera for tested peptides, Day 42 ([6]; 5 μg per injection): 0.392 and 0.497 and 0.300
Individual absorbancy values of sera for tested peptides, Day 42 [6, 7]: 0.199
Individual absorbancy values of sera for tested peptides, Day 14 ([6]; 20 μg per injection): 0.102 and 0.136 and 0.106 and 0.123
Individual absorbancy values of sera for tested peptides, Day 29 ([6]; 20 μg per injection): 0.145 and 0.240 and 0.152 and 0.170
Individual absorbancy values of sera for tested peptides, Day 42 ([6]; 20 μg per injection): 0.180 and 0.304 and 0.218 and 0.158
